# Reference: BindingDB's records for doi:10.1021/jm00210a006 (1979)
# Values joined by “and” are separate entries in the source; they are usually repeats but may differ in a detail not shown here. Equal values may be shown once.
# Target: T1, Complement C1s subcomponent (Homo sapiens, UniProt P09871)
# T1 sequence (P09871 whole entry): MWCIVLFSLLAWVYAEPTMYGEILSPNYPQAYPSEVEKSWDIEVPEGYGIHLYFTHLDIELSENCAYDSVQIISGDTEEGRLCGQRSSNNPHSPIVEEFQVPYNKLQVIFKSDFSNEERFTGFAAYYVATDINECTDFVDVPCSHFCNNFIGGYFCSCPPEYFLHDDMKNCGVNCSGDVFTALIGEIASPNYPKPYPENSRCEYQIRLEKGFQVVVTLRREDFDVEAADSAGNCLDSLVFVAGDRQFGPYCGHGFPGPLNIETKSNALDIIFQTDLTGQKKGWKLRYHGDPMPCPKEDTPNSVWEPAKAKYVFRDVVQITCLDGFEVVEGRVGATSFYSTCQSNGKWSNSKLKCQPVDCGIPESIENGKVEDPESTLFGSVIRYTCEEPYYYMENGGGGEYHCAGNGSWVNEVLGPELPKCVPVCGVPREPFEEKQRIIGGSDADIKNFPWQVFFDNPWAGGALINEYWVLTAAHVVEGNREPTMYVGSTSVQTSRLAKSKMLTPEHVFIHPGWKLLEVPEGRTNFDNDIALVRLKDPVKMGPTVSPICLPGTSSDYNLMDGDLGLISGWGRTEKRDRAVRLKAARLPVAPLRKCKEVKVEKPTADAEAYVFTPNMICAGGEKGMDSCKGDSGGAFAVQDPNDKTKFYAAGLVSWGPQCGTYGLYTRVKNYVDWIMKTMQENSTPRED
# Test: Competitive inhibition of esterase activity of human activated C1s subunit of first complement component assessed as decrease in p-nitrophenol production using N-Z-L-Lys-ONp as substrate by spectrophotometric analysis
row,Structure (SMILES),Ki
1,N=C(N)c1cccc(CC(=O)C(=O)O)c1,2510 µM

# Target: T1, Complement C1s subcomponent
# Test: Competitive inhibition of esterase activity of human activated C1s subunit of first complement component assessed as decrease in p-nitrophenol production using N-Z-L-Tyr-ONp as substrate by spectrophotometric analysis
row,Structure (SMILES),Ki
1,N=C(N)c1cccc(Br)c1,100 µM
2,Cc1ccc(C(=N)N)cc1C,9990 µM and 1600 µM and 4000 µM and 6300 µM
3,N=C(N)c1cccc(OCCCOc2ccccc2)c1,12.5 µM and 15.8 µM and 20 µM and 10 µM
4,N=C(N)c1ccc(CC(=O)C(=O)O)cc1,158 µM and 125 µM and 99.9 µM and 79.4 µM
5,COc1cccc(C(=N)N)c1,160 µM
6,Cc1cc(C)cc(C(=N)N)c1,630 µM and 250 µM and 79 µM

# Target: Plasminogen (Homo sapiens, UniProt P00747)
# Test: Competitive inhibition of esterase activity of human plasmin assessed as assessed as decrease in p-nitrophenol production using N-Z-L-Tyr-ONp as substrate by spectrophotometric analysis
# Sequence of Plasminogen (P00747 97-580 limits assumed): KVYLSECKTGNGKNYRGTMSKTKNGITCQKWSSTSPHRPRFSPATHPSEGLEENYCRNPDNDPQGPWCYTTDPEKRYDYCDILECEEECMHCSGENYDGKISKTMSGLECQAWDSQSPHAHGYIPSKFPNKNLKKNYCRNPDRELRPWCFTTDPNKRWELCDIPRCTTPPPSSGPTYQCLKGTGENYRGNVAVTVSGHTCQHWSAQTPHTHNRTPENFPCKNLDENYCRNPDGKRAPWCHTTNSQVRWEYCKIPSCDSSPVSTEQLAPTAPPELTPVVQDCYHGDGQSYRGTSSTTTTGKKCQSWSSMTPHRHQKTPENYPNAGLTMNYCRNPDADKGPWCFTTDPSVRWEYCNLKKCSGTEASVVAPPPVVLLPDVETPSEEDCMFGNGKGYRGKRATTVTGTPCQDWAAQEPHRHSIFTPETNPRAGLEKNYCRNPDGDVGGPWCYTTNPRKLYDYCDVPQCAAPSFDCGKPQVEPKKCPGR
# Sequence of Plasminogen (P00747 581-810 limits assumed): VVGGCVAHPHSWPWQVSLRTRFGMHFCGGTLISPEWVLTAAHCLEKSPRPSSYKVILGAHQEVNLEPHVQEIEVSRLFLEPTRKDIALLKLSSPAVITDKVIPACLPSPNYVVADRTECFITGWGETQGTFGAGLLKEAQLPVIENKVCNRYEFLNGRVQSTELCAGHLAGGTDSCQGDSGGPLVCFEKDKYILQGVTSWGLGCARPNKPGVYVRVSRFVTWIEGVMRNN
row,Structure (SMILES),Ki
1,N=C(N)c1cccc(Cc2ccccc2)c1,630 µM
2,N=C(N)c1cccc(N)c1,125 µM and 501 µM and 100 µM and 316 µM
